Laboratory results as given in US20070141645A1, “Measuring method using whole blood” (MITSUBISHI KAGAKU IATRON, INC., priority 2005, published 2007).
Where two headings read alike, the source gives them in different places.

What was measured:
[1] = target: endogenous ALP (Homo sapiens, UniProt P05186); settings: 3 weeks
Experimental: To a solution containing 0.4 mM CDP-Star, levamisole was added to final concentrations of 0.4, 1.0 and 4.0 mM to prepare substrate solutions to be examined. As a control, a substrate solution containing 0.4 mM CDP-Star without levamisole was used. Each solution was kept at 4, 25, and 37° C. for 3 weeks, and each remaining activity was measured.
Further, the substrate solutions containing 0.4 mM levamisole and kept at 4° C. and 37° C. for 3 weeks were used to confirm the inhibitory effect of levamisole.

[2] = system: ALP used as the label; settings: addition of levamisole 0.2 mM; positive control
Experimental: (§1) The whole blood sample showing a high background in Example 1 was used as a whole blood negative control, and a plasma obtained by centrifuging the whole blood sample was used as a plasma negative control. Further, a sample obtained by adding a commercially available cTnI (10 ng/mL) to the whole blood sample was used as a whole blood positive control, and a plasma obtained by centrifuging the whole blood positive control was used as a plasma positive control. The obtained 4 samples were measured using the automated immunoanalyzer and the reagent kit for measuring cTnI, as described in Example 1 or 2, except that the ALP-labeled antibody was used as the second antibody.
(§2) Levamisole (SIGMA) was used to examine an inhibitory effect on an endogenous ALP. Levamisole was added to the solution of magnetic particles, the substrate solution, or both thereof at the final concentration of 0.2 mM. When levamisole was added to the solution of magnetic particles, the inhibitor acted in the measuring step (1) of the automated immunoanalyzer described in Example 1. When levamisole was added to the substrate solution, the inhibitor acted in the measuring step (3).

[3] = target: endogenous ALP in whole blood (Homo sapiens, UniProt P05186); settings: for Positive control (S) measured value (count of luminescence): cTnI 10 ng/mL added
Experimental: Each sample was measured using a reagent kit for measuring cardiac troponin I (cTnI). The kit contained a solution of the first antibody specific to cTnI (a solution of magnetic particles), a solution of the labeled second antibody, a B/F washing liquid, a substrate solution, and the like, and was packaged in a cartridge applicable to an automated immunoanalyzer described below. In this example, a buffer not containing a labeled antibody was used, instead of the solution of the second antibody labeled with an alkaline phosphatase (hereinafter referred to as “ALP”). The measurement was carried out using an automated immunoanalyzer for an immunoassay using magnetic particles, as disclosed in Japanese Patent No. 3115501. […] The measuring step in the analyzer will be described below.
A chemiluminescent substrate CDP-Star (Tropics) was used as a substrate. A count of luminescence detected by a photomultiplier tube (PMT) was regarded as a result of the measurement.
Each cartridge for an automatic measurement was filled with each sample, a liquid for diluting a sample, the solution of magnetic particles (coated with the first antibody), the washing liquid for B/F separation, the solution of the second antibody, the substrate solution, and the like, and set to the automated analyzer. The following steps were carried out in accordance with a normal procedure: • (1) The sample solution, the solution of magnetic particles, and the solution of the second antibody, previously adjusted to predetermined dilutions with the diluting liquid, were mixed to generate an immunocomplex by an antigen-antibody reaction. • (2) A B/F separation was carried out to remove unreacted substances as follows. The resulting reaction liquid was aspirated into the tip arranged as a line for aspirating a solution, and the magnetic particles were trapped by contact with a magnet on the outer wall of the tip. The solution was delivered from the tip while trapping the magnetic particles on the inner wall of the tip. After the separation, the washing liquid for the B/F separation filled in another reaction vessel was aspirated and delivered to wash the magnetic particles in the tip. • (3) The magnet was separated from the outer wall of the tip. The substrate solution was aspirated and delivered to disperse the magnetic particles trapped on the inner wall of the tip and carry out an enzyme reaction. • (4) An amount of luminescence was measured by PMT.
as §1, §2

[4] = levamisole 0.2 mM in magnetic particles solution and substrate solution
[5] = levamisole 0.2 mM in substrate solution only
[6] = plasma (a), levamisole 0.2 mM in magnetic particles solution and substrate solution
[7] = plasma (a), levamisole 0.2 mM in substrate solution only
[8] = whole blood (b), levamisole 0.2 mM in magnetic particles solution and substrate solution
[9] = whole blood (b), levamisole 0.2 mM in substrate solution only

Sequence of endogenous ALP in whole blood (P05186 18-501 limits assumed): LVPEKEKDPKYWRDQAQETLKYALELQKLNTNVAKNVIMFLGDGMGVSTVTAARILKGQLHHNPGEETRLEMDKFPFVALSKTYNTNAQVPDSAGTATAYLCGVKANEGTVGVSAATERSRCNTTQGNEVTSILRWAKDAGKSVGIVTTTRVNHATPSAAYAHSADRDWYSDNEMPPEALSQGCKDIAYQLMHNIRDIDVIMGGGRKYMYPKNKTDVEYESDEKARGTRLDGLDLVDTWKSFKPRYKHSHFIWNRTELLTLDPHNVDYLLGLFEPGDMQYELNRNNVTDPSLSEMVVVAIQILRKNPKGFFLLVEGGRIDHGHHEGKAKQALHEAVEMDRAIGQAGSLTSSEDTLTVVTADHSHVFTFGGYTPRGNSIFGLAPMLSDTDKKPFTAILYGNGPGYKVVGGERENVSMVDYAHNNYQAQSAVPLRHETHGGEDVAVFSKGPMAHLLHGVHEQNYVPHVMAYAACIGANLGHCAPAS
Sequence of endogenous ALP (P05186 18-501 limits assumed): as above

count with stored substrate solution (inhibitory effect of levamisole) ([1]; 0.4 mM levamisole in 0.4 mM CDP-Star substrate solution kept at 4° C.): 4086
count with stored substrate solution (inhibitory effect of levamisole) ([1]; 0.4 mM levamisole in 0.4 mM CDP-Star substrate solution kept at 37° C.): 2920
increased background caused by an endogenous ALP in whole blood samples or hemolized samples ([3]; addition of levamisole 0.2 mM): suppressed
Negative control b/a (whole blood to plasma) [3, 4]: 2.33
Positive control b/a (whole blood to plasma) [3, 4]: 1.22
b/[levamisole (—) whole blood negative control] [3, 4]: 0.18
b/[levamisole (—) whole blood positive control] [3, 4]: 0.79
Negative control b/a (whole blood to plasma) [3, 5]: 2.41
Positive control b/a (whole blood to plasma) [3, 5]: 1.33
b/[levamisole (—) whole blood negative control] [3, 5]: 0.17
b/[levamisole (—) whole blood positive control] [3, 5]: 0.94
Positive control (S) measured value (count of luminescence) [3, 6]: 78622
Positive control (S) measured value (count of luminescence) [3, 7]: 84776
Negative control (N) measured value (count of luminescence) [3, 6]: 808
S/N (positive control to negative control) [3, 6]: 97.3
Negative control (N) measured value (count of luminescence) ([3]; plasma (a), levamisole 0.2 mM in substrate (CDP-star) solution only): 708
S/N (positive control to negative control) [3, 7]: 119.7
Positive control (S) measured value (count of luminescence) [3, 8]: 95856
Positive control (S) measured value (count of luminescence) [3, 9]: 113017
Negative control (N) measured value (count of luminescence) [3, 8]: 1883
S/N (positive control to negative control) [3, 8]: 50.9
Negative control (N) measured value (count of luminescence) ([3]; whole blood (b), levamisole 0.2 mM in substrate (CDP-star) solution only): 1705
S/N (positive control to negative control) [3, 9]: 66.3
Compound: c1ccc([C@H]2CN3CCSC3=N2)cc1 [levamisole]
effect on the ALP used as the label [2]: did not adversely affect
